Assay results from publication PMC9186362, “Design and biological evaluation of substituted 5,7-dihydro-6H-indolo[2,3-c]quinolin-6-one as novel selective Haspin inhibitors” (Journal of Enzyme Inhibition and Medicinal Chemistry, 2022).

Experiments:
U-2 OS cells = assay: Cell cycle analysis by flow cytometry; assay type: cell-based, human; settings: 1 µM, 24 h
Protocol: After treatment with the compounds, cells were trypsinized and washed once in PBS. Cells were fixed for 1 h in ice-cold 70% ethanol, then washed once in PBS, centrifuged at 200 g and resuspended in a PBS buffer containing 100 µg/ml RNase A (Thermo Scientific) and 40 µg/ml propidium iodide (Life Technologies). DNA content was determined using a flow cytometer Attune^TM NxT (Thermofisher) and ten thousand events were collected in each run. The data were analysed using FCS Express 7 Pro software (De Novo).

[1] = design: method as in PMID 22305342; settings: cited from earlier work

SMILES	% of cycling cells G2/M (U-2 OS cells; DMSO control 6%)	% of cycling cells S (U-2 OS cells; DMSO control 44%)	% of cycling cells G1 (U-2 OS cells; DMSO control 50%)	Stability in basic media [1]
CCCNc1ccc2ncc(-c3ccc4[nH]ncc4c3)n2n1 [CHR-6494, reference compound]	17%	38%	45%	–
O=c1oc2ccc(O)cc2c2c1[nH]c1ccccc12 [Compound 1a]	–	–	–	instability in basic media
O=c1oc2ccc(O)cc2c2c1[nH]c1cc(O)ccc12 [Compound 1b]	–	–	–	instability in basic media
